{"source": "paper PMC8661032", "about": "“Broad-Spectrum Antibacterial Peptide Kills Extracellular and Intracellular Bacteria Without Affecting Epithelialization” (Frontiers in Microbiology, 2021)", "key": {"P. aeruginosa": {"tested_on": "P. aeruginosa", "experiment": "microbe, parasite or virus in culture", "details": "for MIC: Pseudomonas aeruginosa", "procedure": "(§1) Briefly, bacterial colonies from blood agar plates were suspended and grown in Cation-Adjusted Mueller-Hinton Broth (CAMHB, […] Ca^2+, […] Mg^2+). The bacterial suspension was adjusted to 0.5 McFarland standard (∼1 × 10^8 colony-forming units (CFU)/ml) and serial diluted 1:200 in CAMHB (∼5 × 10^5 CFU/mL). […] The suspension was plated out on blood agar plates to confirm the CFU/ml. Both the microtiter plates and the blood agar plates were incubated at 37°C for 24 h."}, "A. baumannii": {"tested_on": "A. baumannii", "experiment": "microbe, parasite or virus in culture", "details": "for MIC: Acinetobacter baumannii", "procedure": "as §1"}, "S. aureus": {"tested_on": "S. aureus", "experiment": "microbe, parasite or virus in culture", "details": "for MIC: Staphylococcus aureus, CAMHB, 24 h, three independent experiments", "procedure": "as §1"}, "HEK293 cells": {"tested_on": "HEK293 cells", "procedure": "HEK293 cells (6,000 cells/well) were seeded in 96-well microtiter plates. After 4 h, APIM-peptides (12–48 μg/ml) were added, and the cells were incubated without change of media for up to 4 days. Viability was measured using the 3-(4,5-dimethylthiazol-2-yl)-2,5-diphenyltetrazolium bromide (MTT) assay as described ([Gilljam et al., 2009]).\n(1 picture or pasted object on this page, not shown here)"}, "E. coli [1]": {"tested_on": "E. coli", "experiment": "microbe, parasite or virus in culture", "details": "K-12 MG1655; CLSI broth microdilution, CAMHB, 37°C, 24 h, visible growth; net peptide concentration", "procedure": "as §1"}, "E. coli [2]": {"tested_on": "E. coli", "experiment": "Growth inhibition assay (OD600 over 24 h)", "assay_type": "cell-based, Escherichia coli", "set-up": "Reduction of viability E. coli (60 μg/ml): key to the marks not given beside the values", "details": "LB medium", "procedure": "An overnight culture of Escherichia coli was diluted 1:100 in Luria-Bertani (LB) medium and allowed to grow until an optical density (OD) at 600 nm (OD600) of 0.06–0.1. APIM-peptides were prepared by serial dilution in Milli-Q H2O and kept at 4°C. Fresh LB medium (60 μl) was added to a flat-bottom microtiter plate. The bacterial suspension was diluted 1:100 in LB, and 75 μl of this suspension was added to the wells. Finally, 15 μl of APIM-peptide solution (to final concentrations 60, 120, and 240 μg/ml) or distilled water (positive control) was added to the wells, reaching a total volume of 150 μl per well. Data are presented only for the dose that separated the effect of the different peptides, i.e., 60 μg/ml. A blank sterile medium was used as negative control. The plates were incubated with shaking at 510 rpm at 37°C inside a plate reader (TECAN, Spark®), and OD was read every hour over a period of 24 h.\nThe MIC for E. coli in LB medium is higher than that in CAMHB; thus, concentrations higher than the MIC given in Table 2 are used in the growth inhibition and mutagenesis assays. […]\nE. coli. Growth of E. coli in LB medium over 24 hours (Optical Density (OD) 600 nm) after addition\nof APIM-peptide variants 1-5 (60 µg/mL) at time t=0 (see Table 2). Negative (-) control is no\nbacteria added, positive (+) control is untreated bacteria.\nhighest inhibition of growth.\ncontrol (black filled line)."}, "E. coli [3]": {"tested_on": "E. coli", "experiment": "Rifampicin (RifR) mutagenesis assay after UV-C", "assay_type": "cell-based, Escherichia coli", "details": "for Reduction of mutation frequency E. coli (20 μg/ml): 20 μg/ml peptide, UV-C 20 mJ/cm^2, RifR assay, relative to untreated control", "procedure": "The rifampicin (Rif^R) mutagenesis assay was performed as described ([Nedal et al., 2020]). Briefly, an overnight culture of E. coli was diluted 1:1,000 and grown until an OD600 of 0.01. APIM-peptides (20 μg/ml) were added to LB media with glass beads (for uniform distribution of APIM-peptides) and incubated for 30 min at 37°C. The pellets were next collected, resuspended in 500 μl PBS, and exposed to UV-C (20 mJ/cm^2) in a six-well plate at 4°C. The unexposed bacteria (-UV) were otherwise handled exactly like the UV-exposed bacteria. Next, the cells were resuspended in LB media and incubated in a rotary shaker at 37°C at 250 rpm for 2 h before being harvested, diluted, and plated on LB with soft agar with and without rifampicin (100 μg/ml). Mutation frequency, Rif^R/10^8, is obtained as follows: (number of colonies on the rifampicin plate (Rif^R)/(number of colonies on LB plates without antibiotics), per milliliter of bacterial suspension. […]\nmutagenesis in E. coli more efficiently than the other peptide variants.\nIncrease in mutation frequencies after treatment with UV-C (20 mJ/cm2) relative to spontaneous mutations frequencies using the RifR assay were determined. This increase is set to 100% for untreated control, and % reduction after addition of peptides 1-5 (20 μg/mL) are shown. Mean ± SD from three independent experiments. * p<0.05, ** p<0.005"}, "[4]": {"tested_on": "S. epidermidis MRSE (SO-SEP9-1)", "details": "SO-SEP9-1, 24 h", "procedure": "as §1"}}, "note": "Residues, ends and D or L forms follow the SMILES beside them."}
{"smiles": "C[C@@H](O)[C@H]1C(=O)N2C(C(=O)O)=C(S[C@@H]3CN[C@H](C(=O)N(C)C)C3)[C@H](C)[C@H]12", "note": "[Meropenem, meropenem]", "values": [{"measurement": "Combination effect with 0.5× MIC betatide", "setting": "P. aeruginosa; ATCC 27853", "value": "None"}, {"measurement": "MIC", "setting": "P. aeruginosa; 24 h", "value": 64, "unit": "µg/mL"}, {"measurement": "MIC", "setting": "P. aeruginosa; ATCC27853, 24 h", "value": 0.5, "unit": "µg/mL"}, {"measurement": "Combination effect with 0.5× MIC betatide", "setting": "P. aeruginosa; SO-PAE19-1 (multidrug resistant)", "value": "Additive 2×"}, {"measurement": "Combination effect with 0.5× MIC betatide", "setting": "A. baumannii; ATCC 19606", "value": "None"}, {"measurement": "MIC", "setting": "A. baumannii; 24 h", "value": 512, "unit": "µg/mL"}, {"measurement": "MIC", "setting": "A. baumannii; ATCC19606, 24 h", "value": 4, "unit": "µg/mL"}, {"measurement": "Combination effect with 0.5× MIC betatide", "setting": "A. baumannii; SO-ABA19-1 (ESBL-CARBA-D)", "value": "None"}]}
{"smiles": "COc1cccc(OC)c1C(=O)N[C@@H]1C(=O)N2[C@@H]1SC(C)(C)[C@@H]2C(=O)O", "note": "[Methicillin, methicillin]", "values": [{"measurement": "Combination effect with 0.5× MIC betatide", "setting": "S. aureus; ATCC 29213", "value": "Additive 2×"}, {"measurement": "Combination effect with 0.5× MIC betatide", "setting": "S. aureus; SO-SAU19-1 (MRSA)", "value": "Additive 4×"}, {"measurement": "MIC", "setting": "S. aureus; ATCC29213, 24 h, Reference strain ATCC 29213", "value": 1, "unit": "µg/mL"}, {"measurement": "MIC", "setting": "S. aureus; MRSA, Clinical isolate SO-SAU19-1 (MRSA)", "value": 8, "unit": "µg/mL"}]}
{"smiles": "CC[C@H](C)[C@H](NC(=O)[C@H](CCCCN)NC(=O)[C@H](CCCNC(=N)N)NC(=O)[C@H](CCCCN)NC(=O)[C@H](CCCCN)NC(=O)[C@H](CCCCN)NC(=O)[C@H](Cc1c[nH]c2ccccc12)NC(=O)[C@H](CCCCN)NC(=O)[C@@H](NC(=O)[C@H](CC(C)C)NC(=O)[C@H](Cc1c[nH]c2ccccc12)NC(=O)[C@H](CCCNC(=N)N)NC(=O)[C@H](CC(=O)O)NC(=O)[C@H](CCSC)NC(C)=O)C(C)C)C(=O)N[C@@H](CCCNC(=N)N)C(=O)N[C@@H](CCCNC(=N)N)C(=O)N[C@@H](CCCNC(=N)N)C(=O)N[C@@H](CCCNC(=N)N)C(=O)N[C@@H](CCCNC(=N)N)C(=O)N[C@@H](CCCNC(=N)N)C(=O)N[C@@H](CCCNC(=N)N)C(=O)N[C@@H](CCCNC(=N)N)C(=O)N[C@@H](CCCNC(=N)N)C(=O)N[C@@H](CCCNC(=N)N)C(=O)N[C@@H](CCCNC(=N)N)C(N)=O", "note": "[Peptide 1] (Ac-MDRWLVKWKKKRKIRRRRRRRRRRR-NH2)", "values": [{"measurement": "Reduction of viability HEK293 (24 μg/ml)", "setting": "HEK293 cells", "value": "+"}, {"measurement": "MIC E. coli", "setting": "E. coli [1]", "value": 32, "unit": "µg/mL"}, {"measurement": "inhibition of growth of E. coli (OD 600 nm)", "setting": "E. coli [2]; 60 µg/mL, over 24 hours, Supplementary Figure S1", "value": "least efficient"}, {"measurement": "Reduction of mutation frequency E. coli (20 μg/ml)", "setting": "E. coli [3]", "value": "+"}, {"measurement": "MIC S. epidermidis MRSE", "setting": "[4]", "value": 32, "unit": "µg/mL"}]}
{"smiles": "CC[C@H](C)[C@H](NC(=O)CNC(=O)[C@H](CCCCN)NC(=O)[C@@H](NC(=O)[C@H](CC(C)C)NC(=O)[C@H](Cc1c[nH]c2ccccc12)NC(=O)[C@H](CCCNC(=N)N)NC(=O)[C@H](CC(=O)O)NC(=O)[C@H](CCSC)NC(C)=O)C(C)C)C(=O)N[C@@H](CC(C)C)C(=O)N[C@@H](CCC(N)=O)C(=O)N[C@@H](Cc1c[nH]c2ccccc12)C(=O)N[C@@H](CCCNC(=N)N)C(=O)N[C@@H](CCCCN)C(=O)N[C@H](C(=O)N[C@@H](CCCNC(=N)N)C(=O)N[C@@H](CCCNC(=N)N)C(=O)N[C@@H](CCCNC(=N)N)C(=O)N[C@@H](CCCNC(=N)N)C(=O)N[C@@H](CCCNC(=N)N)C(=O)N[C@@H](CCCNC(=N)N)C(=O)N[C@@H](CCCNC(=N)N)C(=O)N[C@@H](CCCNC(=N)N)C(=O)N[C@@H](CCCNC(=N)N)C(=O)N[C@@H](CCCNC(=N)N)C(N)=O)[C@@H](C)CC", "note": "[Peptide 3] (Ac-MDRWLVKGILQWRKIRRRRRRRRRR-NH2)", "values": [{"measurement": "Reduction of viability HEK293 (24 μg/ml)", "setting": "HEK293 cells", "value": "+"}, {"measurement": "MIC E. coli", "setting": "E. coli [1]", "value": 32, "unit": "µg/mL"}, {"measurement": "UV-induced mutation frequencies relative to control", "setting": "E. coli [3]; 20 μg/mL, UV-C 20 mJ/cm2, RifR assay, three independent experiments", "value": "significantly reduced"}, {"measurement": "Reduction of mutation frequency E. coli (20 μg/ml)", "setting": "E. coli [3]", "value": "++"}, {"measurement": "MIC S. epidermidis MRSE", "setting": "[4]", "value": 16, "unit": "µg/mL"}]}
{"smiles": "CC[C@H](C)[C@H](NC(=O)CNC(=O)[C@H](CCCCN)NC(=O)[C@@H](NC(=O)[C@H](CC(C)C)NC(=O)[C@H](Cc1c[nH]c2ccccc12)NC(=O)[C@H](CCCNC(=N)N)NC(=O)[C@H](CC(=O)O)NC(=O)[C@H](CCSC)NC(C)=O)C(C)C)C(=O)N[C@@H](CC(C)C)C(=O)N[C@@H](CCC(N)=O)C(=O)N[C@@H](Cc1c[nH]c2ccccc12)C(=O)N[C@@H](CCCNC(=N)N)C(=O)N[C@@H](CCCCN)C(=O)N[C@H](C(=O)N[C@@H](CCCNC(=N)N)C(=O)N[C@@H](CCCNC(=N)N)C(=O)N[C@@H](CCCNC(=N)N)C(=O)N[C@@H](CCCNC(=N)N)C(=O)N[C@@H](CCCNC(=N)N)C(=O)N[C@@H](CCCNC(=N)N)C(=O)N[C@@H](CCCNC(=N)N)C(=O)N[C@@H](CCCNC(=N)N)C(=O)N[C@@H](CCCNC(=N)N)C(N)=O)[C@@H](C)CC", "note": "[Peptide 4] (Ac-MDRWLVKGILQWRKIRRRRRRRRR-NH2)", "values": [{"measurement": "MIC E. coli", "setting": "E. coli [1]", "value": 32, "unit": "µg/mL"}, {"measurement": "Reduction of viability E. coli (60 μg/ml)", "setting": "E. coli [2]; 60 μg/ml peptide, OD600 every hour over 24 h, relative to untreated control", "value": "++"}, {"measurement": "MIC S. epidermidis MRSE", "setting": "[4]", "value": 16, "unit": "µg/mL"}]}
